The values below come from patent EP1586565A1, “Substituted polycyclic aryl and heteroaryl pyrazinones useful for selective inhibition of the coagulation cascade” (Pharmacia Corporation, priority 1999, dated 2000).

The target in this assay is T1, Human factor Xa (Homo sapiens, UniProt P00742).
T1 construct: leads from XII to XIIa to XIa to IXa and to the conversion of X to Xa; purchased Enzyme Research Laboratories, South Bend IN
Put plainly: Xa Assay. Format: biochemical. The conditions noted are these: for IC50 or % Inhibition Factor Xa (30 µM): % inhibition at 30 µM (cells with % or %@30, bare 0).

T1 sequence (P00742 235-488 limits assumed): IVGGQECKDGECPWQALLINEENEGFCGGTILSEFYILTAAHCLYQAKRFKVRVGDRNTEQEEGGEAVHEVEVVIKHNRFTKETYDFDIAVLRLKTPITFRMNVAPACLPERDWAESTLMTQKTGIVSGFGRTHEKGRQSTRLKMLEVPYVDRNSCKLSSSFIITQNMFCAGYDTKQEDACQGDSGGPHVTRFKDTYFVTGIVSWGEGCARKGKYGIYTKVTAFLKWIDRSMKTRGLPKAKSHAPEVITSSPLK
T1 sequence (P00742 41-179 limits assumed): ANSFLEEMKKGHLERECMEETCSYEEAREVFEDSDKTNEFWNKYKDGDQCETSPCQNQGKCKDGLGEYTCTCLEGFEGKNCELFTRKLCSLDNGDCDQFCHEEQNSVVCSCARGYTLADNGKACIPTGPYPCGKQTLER

As for `N=C(N)c1ccc(CNC(=O)Cn2c(-c3ccccc3)c(Cl)nc(NCc3ccc(C(F)(F)F)cc3F)c2=O)cc1` [1512-26], the “IC50 or % Inhibition Factor Xa (30 µM)” value worked out at 5%.
On the same count and under the same terms, the same measure for `Cc1c(Cl)nc(NCCN2CCOCC2)c(=O)n1CC(=O)NCc1ccc(C(=N)N)cc1` [1471-4]: 0%; for `N=C(N)c1ccc(CNC(=O)Cn2c(-c3ccccc3)c(Cl)nc(NCc3cc(C(F)(F)F)ccc3F)c2=O)cc1` [1512-27]: 3%.
As for `CC(C)CCNc1nc(Cl)c(-c2ccccc2)n(CC(=O)NCc2ccc(C(=N)N)cc2)c1=O` [1517-40], the “IC50 or % Inhibition Factor Xa (30 µM)” value was determined as 0%.
Consider `O=C(Cn1c(-c2cccc(Cl)c2)c(Cl)nc(NCCc2ccc(Cl)cc2)c1=O)NCCc1cccnc1` [Example E-0095], for which the “% Inhibition Factor Xa (100 µM)” value amounted to 4%.
Regarding `N=C(N)c1ccc(CNC(=O)Cn2c(-c3ccsc3)c(Cl)nc(NCc3ccccc3)c2=O)cc1` [1517-01], the “IC50 or % Inhibition Factor Xa (30 µM)” value amounted to 0%.
As to `C[C@@H](C(=O)NCc1ccc(C(=N)N)cc1)n1c(-c2ccccc2)c(Cl)nc(NCCc2ccccc2)c1=O` [1517-15], the “IC50 or % Inhibition Factor Xa (30 µM)” value was 0%.
On the same count and under the same terms, the same measure for `Cc1c(Cl)nc(NCCc2ccccc2)c(=O)n1CC(=O)NCc1ccc(C(=N)N)cc1` [1471-7]: 4%.
Take `Nc1n[nH]c2ccc(CNC(=O)Cn3c(-c4ccccc4)cnc(NCCc4ccccc4)c3=O)cc12` [Example 38]: the “IC50 or % Inhibition Factor Xa (30 µM)” value is 22%.
Still for that read-out and setting: in the case of `N=C(N)c1ccc(CNC(=O)Cn2c(-c3c(Cl)cccc3Cl)c(Cl)nc(NCCc3ccccc3)c2=O)cc1` [1517-18] it was 0%.
As to `COc1ccc(-c2c(Cl)nc(NCCc3cccc(Cl)c3)c(=O)n2CC(=O)NCCc2ccncc2)cc1` [Example E-0035], the “% Inhibition Factor Xa (100 µM)” value is listed as 0%.
For `CC(C)Nc1nc(Cl)c(-c2cccc(N)c2)n(CC(=O)NCCc2ccc(C(=N)N)cc2)c1=O` [Example 62], the “IC50 or % Inhibition Factor Xa (30 µM)” value was found to be 10%.
On the same count and under the same terms, the same measure for `COC(=O)c1cccc(-c2c(Cl)nc(NC(C)C)c(=O)n2CC(=O)NCc2ccc(C(=N)N)cc2)c1` [Example 64]: 19%.
On to `C[C@H](C(=O)NCc1ccc(C(=N)N)cc1)n1c(-c2ccccc2)c(Cl)nc(NCCc2ccccc2)c1=O` [1517-17], for which the “IC50 or % Inhibition Factor Xa (30 µM)” value was 0%.
As for `N=C(N)c1ccc(CNC(=O)Cn2c(-c3ccc(Cl)cc3)c(Cl)nc(NCCc3cccc(Cl)c3)c2=O)cc1` [1471-22], the “IC50 or % Inhibition Factor Xa (30 µM)” value was determined as 28%.
Still for that read-out and setting: the same measure for `C[Si](C)(C)CNc1nc(Cl)c(-c2ccccc2)n(CC(=O)NCc2ccc(C(=N)N)cc2)c1=O` [1517-36]: 0%; for `N=C(N)c1ccc(CNC(=O)Cn2c(-c3ccc4c(c3)OCO4)c(Cl)nc(NCCc3ccncc3)c2=O)cc1` [1471-45]: 24%; for `N=C(N)c1ccc(CNC(=O)Cn2c(-c3ccccc3)c(Cl)nc(NC3CCc4ccccc43)c2=O)cc1` (centres unmarked) [1507-02]: 9%.
On the same count and under the same terms, the same measure for `N=C(N)c1ccc(CNC(=O)Cn2c(-c3ccsc3)c(Cl)nc(NCCc3ccccc3)c2=O)cc1` [1517-13]: 0%; for `N=C(N)c1ccc(CNC(=O)Cn2c(-c3ccccc3)c(Cl)nc(NCCc3ccncc3)c2=O)cc1` [1471-13]: 0%; for `N=C(N)c1ccc(CNC(=O)Cn2c(-c3cccc(N)c3)c(Cl)nc(NC3CCC3)c2=O)cc1F` [Example 40]: 0%.
Same read-out and setting: in the case of `CCCCC(CC)Nc1nc(Cl)c(-c2ccccc2)n(CC(=O)NCc2ccc(C(=N)N)cc2)c1=O` (centres unmarked) [1512-12] it was 5%.
For the compound `O=C(Cn1c(-c2cccc(Cl)c2)c(Cl)nc(NCCc2cccc(Cl)c2)c1=O)NCCc1cccnc1` [Example E-0080], the “% Inhibition Factor Xa (100 µM)” value came out at 4%.
Turning to `N=C(N)c1ccc(CNC(=O)Cn2c(-c3ccccc3)c(Cl)nc(NCc3c(F)cccc3F)c2=O)cc1` [1512-43], the “IC50 or % Inhibition Factor Xa (30 µM)” value is 9%.
Still for that read-out and setting: the same measure for `Cc1c(Cl)nc(NCCc2ccncc2)c(=O)n1CC(=O)NCc1ccc(C(=N)N)cc1` [1471-5]: 12%; for `N=C(N)c1ccc(CNC(=O)Cn2c(-c3ccccc3)c(Cl)nc(NC3CCCCC3)c2=O)cc1` [1517-25]: 0%.
In the case of `CC(C)Nc1nc(Cl)c(-c2cccc(C(=O)O)c2)n(CC(=O)NCc2ccc(C(=N)N)cc2)c1=O` [Example 65], the “IC50 or % Inhibition Factor Xa (30 µM)” value was 12%.
On to `O=C(Cn1c(-c2ccc(Cl)cc2)c(Cl)nc(NCCc2cccc(Cl)c2)c1=O)NCCc1ccncc1` [Example E-0027], for which the “% Inhibition Factor Xa (100 µM)” value was determined as 0%.
On to `O=C(Cn1c(-c2ccc(Cl)cc2)c(Cl)nc(NCCc2ccc(Cl)cc2)c1=O)NCCc1ccncc1` [Example E-0020], for which the “% Inhibition Factor Xa (100 µM)” value is reported as 1%.
Take `N=C(N)c1ccc(CNC(=O)Cn2c(-c3ccccc3)c(Cl)nc(NCCc3cccnc3)c2=O)cc1` [1471-16]: the “IC50 or % Inhibition Factor Xa (30 µM)” value was 23%.
With `N=C(N)c1ccc(CNC(=O)Cn2c(-c3ccccc3)c(Cl)nc(NCc3cc(F)cc(F)c3)c2=O)cc1` [1512-39], the “IC50 or % Inhibition Factor Xa (30 µM)” value was 4%.
On the same count and under the same terms, the same measure for `CCOc1ccccc1CNc1nc(Cl)c(-c2ccccc2)n(CC(=O)NCc2ccc(C(=N)N)cc2)c1=O` [1512-11]: 5%; for `CSCC(C(=O)NCc1ccc(C(=N)N)cc1)n1c(-c2ccccc2)c(Cl)nc(NC2CCC2)c1=O` (centres unmarked) [1517-10]: 0%.
Take `N=C(N)c1ccc(CNC(=O)Cn2c(-c3ccccc3)c(Cl)nc(NCCN3CCOCC3)c2=O)cc1` [1471-12]: the “IC50 or % Inhibition Factor Xa (30 µM)” value was 9%.
In the case of `N=C(N)c1ccc(CNC(=O)Cn2c(-c3cccc(Cl)c3)c(Cl)nc(NCCc3cccnc3)c2=O)cc1` [1471-32], the “IC50 or % Inhibition Factor Xa (30 µM)” value was 25%.
On the same count and under the same terms, in the case of `N=C(N)c1ccc(CNC(=O)Cn2c(-c3ccccc3)c(Cl)nc(NCc3ccccc3OC(F)(F)F)c2=O)cc1` [1512-42] it was 1%.
`N=C(N)c1ccc(CNC(=O)Cn2c(-c3cccc(Cl)c3)c(Cl)nc(NCCc3ccccc3)c2=O)cc1` [1471-31]: the “IC50 or % Inhibition Factor Xa (30 µM)” value is recorded as 17%.
On to `O=C(Cn1c(-c2cccc(Cl)c2)c(Cl)nc(NCCc2ccc(Cl)cc2)c1=O)NCCc1cccnc1` [Example E-0083], for which the “% Inhibition Factor Xa (100 µM)” value is listed as 3%.
`N=C(N)c1ccc(CNC(=O)Cn2c(Cc3ccccc3)c(Cl)nc(NCCc3ccccc3)c2=O)cc1` [Example 20]: the “IC50 or % Inhibition Factor Xa (30 µM)” value came out at 6%@30.
As to `N=C(N)c1ccc(CNC(=O)Cn2c(-c3ccsc3)c(Cl)nc(NCCc3cccc(Cl)c3)c2=O)cc1` [1517-19], the “IC50 or % Inhibition Factor Xa (30 µM)” value is listed as 0%.
As to `CCc1c(Cl)nc(NCCc2ccc(Cl)cc2)c(=O)n1CC(=O)NCc1ccc(C(=N)N)cc1` [1471-58], the “IC50 or % Inhibition Factor Xa (30 µM)” value is 0%.
In the case of `N=C(N)c1ccc(CNC(=O)Cn2c(-c3ccccc3)c(Cl)nc(NC3CCCCCC3)c2=O)cc1` [1512-16], the “IC50 or % Inhibition Factor Xa (30 µM)” value is on record as 10%.
For the compound `Cc1c(Cl)nc(NCc2ccncc2)c(=O)n1CC(=O)NCc1ccc(C(=N)N)cc1` [1471-3], the “IC50 or % Inhibition Factor Xa (30 µM)” value stood at 0%.
For `COc1ccc(-c2c(Cl)nc(NCCc3ccc(Cl)cc3)c(=O)n2CC(=O)NCc2ccc(C(=N)N)cc2)cc1` [1471-34], the “IC50 or % Inhibition Factor Xa (30 µM)” value is 24%.
